How the values were obtained:
[1] = Potency results of ezatiostat hydrochloride in binary mixtures, formulations and alone stored at 40° C. and 75% RH; format: physicochemical; conditions: for Potency: 40° C. and 75% RH
Method: (§1) Further, ezatiostat hydrochloride was mixed with each of the excipients mentioned in Table 3. The quantity of excipient used was determined by the desired properties of the resulting formulation. These blends were prepared in scintillation vials which were screw Teflon capped and stored at 40° C. and 75% RH.
The potency results of ezatiostat hydrochloride in the binary mixtures of Table 3, Formulations 1 and 2 of Table 2, and ezatiostat hydrochloride alone stored at 40° C. and 75% RH are shown in Table 4.

[2] = Degradation products by HPLC of binary mixtures and formulations of ezatiostat hydrochloride over time; format: physicochemical; conditions: 40° C. and 75% RH
Method: as §1
The degradation products were evaluated for each sample using HPLC at initial, 4 weeks, and 8 weeks period. For the initial and 4 week samples, the HPLC autosampler temperature was set at ambient but it was set at 5° C. for samples tested at 8 weeks. The autosampler temperature was lowered due to an observation that individual impurities were increasing during the HPLC run.
The inconsistent results obtained at four weeks were attributed to higher temperature used during HPLC. For this reason, the data at four weeks is not probative for the underlying study.

[3] = 4 weeks, autosampler ambient (data called not probative)

Potency ([1]; T = 0 weeks): 102.1% | Potency ([1]; T = 4 weeks): 102.0% | Potency ([1]; T = 8 weeks): 100.4% | Potency change over eight weeks ([1]; storage at 40° C. and 75% RH): little change | RS(% Area) RRT 0.74 ([2]; 0 weeks, autosampler ambient): 0.13% Area | RS(% Area) RRT 0.88 ([2]; 0 weeks, autosampler ambient): 0.09% Area | RS(% Area) Total ([2]; 0 weeks, autosampler ambient): 0.22% Area | RS(% Area) RRT 0.74 [2, 3]: 0.28% Area | RS(% Area) RRT 0.88 [2, 3]: 0.27% Area | RS(% Area) Total [2, 3]: 0.55% Area | RS(% Area) RRT 0.74 ([2]; 8 weeks, autosampler 5° C.): 0.07% Area | RS(% Area) RRT 0.88 ([2]; 8 weeks, autosampler 5° C.): 0.51% Area | RS(% Area) Total ([2]; 8 weeks, autosampler 5° C.): 0.58% Area | RS(% Area) RRT 0.88 ([2]; 8 weeks, autosampler 5° C., listed as ezatiostat hydrochloride): 0.51 % Area
Structure (SMILES): CCOC(=O)[C@@H](N)CCC(=O)N[C@@H](CSCc1ccccc1)C(=O)N[C@@H](C(=O)OCC)c1ccccc1.Cl [Ezatiostat•HCl, ethyl (2S)-2-amino-5-[[(2R)-3-benzylsulfanyl-1-[[(JR)-2-ethoxy-2-oxo-1-phenylethyl]amino]-1-oxopropan-2-yl]amino]-5-oxopentanoate]
Excipient compatibility ([1]; eight weeks at 40° C. and 75% RH): compatible with all the excipients investigated above
